According to the supplement of paper PMC10307832:

Compound: C1=CC2=NC=CN=C2C=C1/C=C/3\C(=O)NC(=O)S3 + O=C(c1cc(Cc2n[nH]c(=O)c3ccccc23)ccc1F)N1CCN(C(=O)C2CC2)CC1 [Olaparib] (partner 8 µM)
Test: relative viability (nuclei count vs DMSO), 5 days (fraction); higher = more cells survive
Conditions: first compound 0.02 µM
Outline: (§1)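 Cells from lung cancer lines were seeded into 1536-well plates and, one day later, dosed by pin tool. Treatments were either a single drug or a fixed dose of an anchor drug with five library-drug doses (not always all listed) in √10 steps. After 5 days, nuclei were stained in a one-step fixation (final 0.05% Triton X-100, 1% formaldehyde, 1 ug/ml Hoechst) and counted on 4× images, and relative viability is the treated-to-vehicle nuclei ratio, as the median of duplicate plates.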

Point of comparison: NCI-H1944, relative viability 0.384. Against it:
- LC-2-ad — higher, 0.63
- NCI-H1975 — higher, 0.728
- RERF-LC-KJ — higher, 0.893
- ABC-1 — higher, 0.712
- NCI-H358 — higher, 0.559
- NCI-H650 — higher, 0.422
- PC-3 [JPC-3] — higher, 1.07

Same assay, conditions: first compound 0.06325 µM

Point of comparison: ABC-1, relative viability 0.88. Against it:
- LC-2-ad — lower, 0.811
- NCI-H1944 — lower, 0.391
- NCI-H1975 — lower, 0.743
- RERF-LC-KJ — higher, 0.937
- NCI-H358 — lower, 0.663
- NCI-H650 — lower, 0.397
- PC-3 [JPC-3] — higher, 1.18

Same assay, conditions: first compound 0.2 µM

Point of comparison: NCI-H1944, relative viability 0.333. Against it:
- LC-2-ad — higher, 0.692
- NCI-H1975 — higher, 0.805
- RERF-LC-KJ — higher, 1
- ABC-1 — higher, 0.859
- NCI-H358 — higher, 0.65
- NCI-H650 — higher, 0.466
- PC-3 [JPC-3] — higher, 1.11

Same assay, conditions: first compound 0.6325 µM

Point of comparison: RERF-LC-KJ, relative viability 0.888. Against it:
- LC-2-ad — lower, 0.611
- NCI-H1944 — lower, 0.412
- NCI-H1975 — lower, 0.768
- ABC-1 — lower, 0.782
- NCI-H358 — lower, 0.667
- NCI-H650 — lower, 0.444
- PC-3 [JPC-3] — higher, 1.18

Same assay, conditions: first compound 2 µM

Point of comparison: NCI-H1944, relative viability 0.418. Against it:
- LC-2-ad — lower, 0.344
- NCI-H1975 — higher, 0.794
- RERF-LC-KJ — higher, 0.939
- ABC-1 — higher, 0.735
- NCI-H358 — higher, 0.419
- NCI-H650 — lower, 0.267
- PC-3 [JPC-3] — higher, 1.13

Compound: CCN1CCN(c2ccc(Nc3cc(N(C)C(=O)Nc4c(Cl)c(OC)cc(OC)c4Cl)ncn3)cc2)CC1 [BGJ398] + CS(=O)(=O)N1CCN(Cc2cc3nc(-c4cccc5[nH]ncc45)nc(N4CCOCC4)c3s2)CC1 [Pictilisib] (partner 1 µM)
Test: as above
Conditions: first compound 0.01 µM
Outline: as §1

Point of comparison: NCI-H358, relative viability 0.305. Against it:
- LC-2-ad — higher, 0.547
- NCI-H1944 — higher, 0.36
- NCI-H1975 — lower, 0.296
- RERF-LC-KJ — higher, 0.598
- ABC-1 — higher, 0.63
- NCI-H650 — higher, 0.87
- PC-3 [JPC-3] — higher, 0.716

Same assay, conditions: first compound 0.03162 µM

Point of comparison: ABC-1, relative viability 0.721. Against it:
- LC-2-ad — lower, 0.492
- NCI-H1944 — lower, 0.348
- NCI-H1975 — lower, 0.296
- RERF-LC-KJ — lower, 0.663
- NCI-H358 — lower, 0.403
- NCI-H650 — higher, 0.943

Same assay, conditions: first compound 0.1 µM

Point of comparison: RERF-LC-KJ, relative viability 0.515. Against it:
- LC-2-ad — lower, 0.467
- NCI-H1944 — lower, 0.323
- NCI-H1975 — lower, 0.269
- ABC-1 — higher, 0.722
- NCI-H358 — lower, 0.358
- NCI-H650 — higher, 0.867
- PC-3 [JPC-3] — higher, 0.708

Same assay, conditions: first compound 0.3162 µM

Point of comparison: NCI-H650, relative viability 0.858. Against it:
- LC-2-ad — lower, 0.419
- NCI-H1944 — lower, 0.333
- NCI-H1975 — lower, 0.321
- RERF-LC-KJ — lower, 0.583
- ABC-1 — lower, 0.693
- NCI-H358 — lower, 0.315
- PC-3 [JPC-3] — lower, 0.492

Same assay, conditions: first compound 1 µM

Point of comparison: NCI-H358, relative viability 0.332. Against it:
- LC-2-ad — higher, 0.392
- NCI-H1944 — lower, 0.311
- NCI-H1975 — lower, 0.252
- RERF-LC-KJ — higher, 0.615
- ABC-1 — higher, 0.916
- NCI-H650 — higher, 0.868
- PC-3 [JPC-3] — higher, 0.689

Compound: CCN1CCN(c2ccc(Nc3cc(N(C)C(=O)Nc4c(Cl)c(OC)cc(OC)c4Cl)ncn3)cc2)CC1 [BGJ398] + Nc1ncn([C@H]2C[C@H](O)[C@@H](CO)O2)c(=O)n1 [Decitabine] (partner 2 µM)
Test: as above
Conditions: first compound 0.01 µM
Outline: as §1

Point of comparison: LC-2-ad, relative viability 0.699. Against it:
- NCI-H1944 — lower, 0.401
- NCI-H1975 — lower, 0.492
- RERF-LC-KJ — lower, 0.66
- ABC-1 — higher, 1.17
- NCI-H358 — lower, 0.184
- NCI-H650 — lower, 0.356
- PC-3 [JPC-3] — higher, 0.782

Same assay, conditions: first compound 0.03162 µM

Point of comparison: RERF-LC-KJ, relative viability 0.79. Against it:
- LC-2-ad — higher, 0.855
- NCI-H1944 — lower, 0.404
- NCI-H1975 — lower, 0.454
- ABC-1 — higher, 0.955
- NCI-H358 — lower, 0.215
- NCI-H650 — lower, 0.318

Same assay, conditions: first compound 0.1 µM

Point of comparison: NCI-H1944, relative viability 0.448. Against it:
- LC-2-ad — higher, 0.899
- NCI-H1975 — lower, 0.423
- RERF-LC-KJ — higher, 0.765
- ABC-1 — higher, 0.966
- NCI-H358 — lower, 0.208
- NCI-H650 — lower, 0.398
- PC-3 [JPC-3] — higher, 0.777

Same assay, conditions: first compound 0.3162 µM

Point of comparison: RERF-LC-KJ, relative viability 0.739. Against it:
- LC-2-ad — higher, 0.771
- NCI-H1944 — lower, 0.43
- NCI-H1975 — lower, 0.406
- NCI-H358 — lower, 0.201
- NCI-H650 — lower, 0.312

Same assay, conditions: first compound 1 µM

Point of comparison: NCI-H1944, relative viability 0.48. Against it:
- LC-2-ad — higher, 0.852
- NCI-H1975 — lower, 0.381
- RERF-LC-KJ — higher, 0.642
- ABC-1 — higher, 1.18
- NCI-H358 — lower, 0.2
- NCI-H650 — lower, 0.359
- PC-3 [JPC-3] — higher, 0.878

Compound: CCN1CCN(c2ccc(Nc3cc(N(C)C(=O)Nc4c(Cl)c(OC)cc(OC)c4Cl)ncn3)cc2)CC1 [BGJ398] + NC(=O)Nc1cc(-c2cccc(F)c2)sc1C(=O)N[C@H]1CCCNC1 [AZD7762] (partner 0.2 µM)
Test: as above
Conditions: first compound 0.01 µM
Outline: as §1

Point of comparison: LC-2-ad, relative viability 0.886. Against it:
- NCI-H1944 — lower, 0.561
- NCI-H1975 — lower, 0.767
- RERF-LC-KJ — lower, 0.858
- ABC-1 — lower, 0.713
- NCI-H650 — lower, 0.877
- PC-3 [JPC-3] — lower, 0.853

Same assay, conditions: first compound 0.03162 µM

Point of comparison: NCI-H1944, relative viability 0.536. Against it:
- LC-2-ad — higher, 0.802
- NCI-H1975 — higher, 0.711
- RERF-LC-KJ — higher, 1
- ABC-1 — higher, 0.964
- NCI-H358 — lower, 0.473
- NCI-H650 — higher, 0.934

Same assay, conditions: first compound 0.1 µM

Point of comparison: NCI-H1975, relative viability 0.78. Against it:
- LC-2-ad — higher, 0.852
- NCI-H1944 — lower, 0.484
- RERF-LC-KJ — higher, 0.987
- ABC-1 — higher, 0.898
- NCI-H358 — lower, 0.591
- NCI-H650 — higher, 0.941
- PC-3 [JPC-3] — higher, 0.781

Same assay, conditions: first compound 0.3162 µM

Point of comparison: NCI-H650, relative viability 0.875. Against it:
- LC-2-ad — higher, 0.893
- NCI-H1944 — lower, 0.439
- NCI-H1975 — lower, 0.666
- RERF-LC-KJ — lower, 0.819
- ABC-1 — lower, 0.572
- NCI-H358 — lower, 0.507

Same assay, conditions: first compound 1 µM

Point of comparison: NCI-H358, relative viability 0.725. Against it:
- LC-2-ad — higher, 0.957
- NCI-H1944 — lower, 0.516
- NCI-H1975 — lower, 0.606
- RERF-LC-KJ — lower, 0.295
- ABC-1 — higher, 1.13
- NCI-H650 — higher, 1.04
- PC-3 [JPC-3] — higher, 0.837
